{"source": "paper PMC6600542", "about": "(Molecules, 2019)", "assay_type_in_all_cases": "biochemical", "key": {"[1]": {"biological_target": "T1, human FXIIIa (Homo sapiens, UniProt P00488)", "T1 construct": "followed by the addition of 2 μL human FXIIIa (0.3 μM); purchased Haematologic Technologies, Inc", "T1 sequence (P00488 39-732 limits assumed)": "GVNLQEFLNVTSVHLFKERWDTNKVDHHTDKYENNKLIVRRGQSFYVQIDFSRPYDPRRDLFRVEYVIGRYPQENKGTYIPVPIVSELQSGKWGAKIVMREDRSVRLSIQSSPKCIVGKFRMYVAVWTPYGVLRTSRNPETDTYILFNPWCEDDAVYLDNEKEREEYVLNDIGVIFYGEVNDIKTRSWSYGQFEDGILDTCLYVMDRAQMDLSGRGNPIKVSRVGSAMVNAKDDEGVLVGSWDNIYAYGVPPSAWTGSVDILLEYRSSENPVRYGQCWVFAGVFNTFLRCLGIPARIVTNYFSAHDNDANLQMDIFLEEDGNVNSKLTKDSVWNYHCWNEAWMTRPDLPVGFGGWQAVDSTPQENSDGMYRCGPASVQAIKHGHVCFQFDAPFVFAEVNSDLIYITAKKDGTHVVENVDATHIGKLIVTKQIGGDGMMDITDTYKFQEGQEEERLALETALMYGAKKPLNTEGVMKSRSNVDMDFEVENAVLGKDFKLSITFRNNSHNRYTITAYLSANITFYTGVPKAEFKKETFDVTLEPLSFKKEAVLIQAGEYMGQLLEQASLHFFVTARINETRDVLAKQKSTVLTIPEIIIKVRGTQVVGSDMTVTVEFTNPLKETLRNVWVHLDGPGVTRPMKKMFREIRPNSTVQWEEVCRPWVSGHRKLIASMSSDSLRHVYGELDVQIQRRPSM", "assay": "FXIIIa fluorescence-based transglutamination assay", "conditions": "pH 7.4, 37 °C", "description": "Direct inhibition of the human coagulation transglutaminase FXIIIa was also studied using a fluorescence-based transglutamination assay as reported in the literature.\nThe activity of FXIIIa was evaluated by the addition of 5 μL dansylcadaverine (2 mM) and measuring the initial rate of increase in fluorescence emission (λEx. = 360 nm and λEm. = 490 nm). In all assays, the dose dependence of the fractional residual enzyme activity, if any, was analyzed using Equation (1) above to obtain the apparent concentration of the test molecule required to reduce the enzyme activity to 50% of its initial value. All assays were performed three times."}, "[2]": {"system": "human plasma deficient of FIX", "assay": "APTT clotting assay, FIX-deficient plasma", "description": "(§1) For the PT assay, thromboplastin-D was reconstituted according to the manufacturer’s directions and warmed to 37 °C. […] After incubation for 4 min at 37 °C, clotting was initiated by adding 100 μL of prewarmed 25 mM CaCl2 and the time to clotting was noted. […] To determine the in vitro effect on the APTT of deficient human plasmas, the APTT assay was repeated, using human plasmas deficient of factor VII (FVII), factor IX (FIX), FXI, or factor XII (FXII). […] The positive control used in APTT and PT assays was rivaroxaban, a clinically used FXa inhibitor. Under the conditions reported, rivaroxaban doubled the APTT and PT at concentrations of 0.123 ± 0.003 µM and 0.193 ± 0.043 µM, respectively."}, "[3]": {"system": "human plasma deficient of FVII", "assay": "APTT clotting assay, FVII-deficient plasma", "description": "as §1"}, "[4]": {"biological_target": "human FXa (Homo sapiens, UniProt P00742)", "sequence (P00742 235-488 limits assumed)": "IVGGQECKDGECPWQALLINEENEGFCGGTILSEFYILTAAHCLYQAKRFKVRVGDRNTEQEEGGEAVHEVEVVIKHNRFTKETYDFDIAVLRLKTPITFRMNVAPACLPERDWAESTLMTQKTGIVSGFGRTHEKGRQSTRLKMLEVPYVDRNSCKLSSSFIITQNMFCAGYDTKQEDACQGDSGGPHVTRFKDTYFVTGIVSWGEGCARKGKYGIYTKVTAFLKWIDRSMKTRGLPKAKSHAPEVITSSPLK", "sequence (P00742 41-179 partner limits assumed)": "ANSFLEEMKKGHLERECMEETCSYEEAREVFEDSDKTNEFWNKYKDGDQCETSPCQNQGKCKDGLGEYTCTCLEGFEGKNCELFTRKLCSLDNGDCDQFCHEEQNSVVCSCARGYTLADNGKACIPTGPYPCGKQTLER", "assay": "Michaelis-Menten kinetics of Spectrozyme FXa hydrolysis by FXa", "conditions": "for Km / VMAX of Spectrozyme FXa hydrolysis: pH 7.4, 37 °C", "description": "The initial rate of Spectrozyme FXa hydrolysis by human FXa (87 nM) or that of Spectrozyme PL hydrolysis by human plasmin (120 nM) was monitored from the linear increase in absorbance at 405 nm corresponding to less than 10% consumption of the substrate. […] The data were fitted by Michaelis-Menten Equation (2) to determine KM (substrate affinity to the enzyme) and VMAX (maximum velocity of enzyme reaction). (2) Vi=VMAX×[S]/KM+[S]"}, "[5]": {"system": "human plasma deficient of FXI", "assay": "APTT clotting assay, FXI-deficient plasma", "description": "as §1"}, "[6]": {"system": "human plasma deficient of FXII", "assay": "APTT clotting assay, FXII-deficient plasma", "description": "as §1"}, "[7]": {"system": "normal human plasma", "assay": "PT clotting assay, normal human plasma", "conditions": "for concentration to double the PT: normal human plasma (text)", "description": "as §1"}}, "note": "“And” between values parts separate entries of the source, which are not always exact repeats. Identical values can stand only once."}
{"smiles": "N=C(N)c1ccc(OCCCCCOc2ccc(C(=N)N)cc2)cc1", "note": "[pentamidine isethionate, 4,4′-(pentane-1,5-diylbis(oxy))-dibenzimidamide]", "values": [{"measurement": "IC50", "setting": "[1]", "result": "> 50", "unit": "µM"}, {"measurement": "APTTEC2×, concentration to double clotting time", "setting": "[2]", "result": "26.32 ± 3.52", "unit": "µm"}, {"measurement": "APTTEC2×, concentration to double clotting time", "setting": "[3]", "result": "26.71 ± 0.50", "unit": "µm"}, {"measurement": "Km", "setting": "[4]; 5 µM pentamidine isethionate", "result": "267 ± 21.2", "unit": "µM"}, {"measurement": "VMAX of Spectrozyme FXa hydrolysis", "setting": "[4]; 5 µM pentamidine isethionate", "result": "114.3 ± 4.7", "unit": "mAU/min"}, {"measurement": "Km", "setting": "[4]; 10 µM pentamidine isethionate", "result": "410 ± 18.2", "unit": "µM"}, {"measurement": "VMAX of Spectrozyme FXa hydrolysis", "setting": "[4]; 10 µM pentamidine isethionate", "result": "124.2 ± 3.3", "unit": "mAU/min"}, {"measurement": "Km", "setting": "[4]; 20 µM pentamidine isethionate", "result": "364 ± 36.6", "unit": "µM"}, {"measurement": "VMAX of Spectrozyme FXa hydrolysis", "setting": "[4]; 20 µM pentamidine isethionate", "result": "63.1 ± 3.6", "unit": "mAU/min"}, {"measurement": "Km", "setting": "[4]; 50 µM pentamidine isethionate", "result": "690 ± 63.1", "unit": "µM"}, {"measurement": "VMAX of Spectrozyme FXa hydrolysis", "setting": "[4]; 50 µM pentamidine isethionate", "result": "60.3 ± 3.8", "unit": "mAU/min"}, {"measurement": "decrease of VMAX of Spectrozyme FXa hydrolysis", "setting": "[4]; inhibitor 50 μM vs absence", "result": "~ 2.8 fold"}, {"measurement": "increase of KM for Spectrozyme FXa", "setting": "[4]; inhibitor 50 μM vs absence", "result": "~ 2.3 fold"}, {"measurement": "APTTEC2×, concentration to double clotting time", "setting": "[5]", "result": "29.48 ± 3.88", "unit": "µm"}, {"measurement": "APTTEC2×, concentration to double clotting time", "setting": "[6]", "result": "27.05 ± 6.05", "unit": "µm"}, {"measurement": "PTEC2×, concentration to double clotting time", "setting": "[7]; PT assay, normal human plasma", "result": "45.70 ± 0.85", "unit": "µm"}, {"measurement": "concentration to double the PT", "setting": "[7]", "result": "45.7 µM and 45.70 ± 0.85 µM"}, {"measurement": "concentration to double the PT", "setting": "[7]; listed as pentamidine", "result": "lower than 50 µM"}]}
